Source: patent US7700584B2 (Hangzhou Minsheng Pharmaceuticals Co., Ltd., priority 2004, dated 2010)
Like-named read-outs stand apart in the source and are kept apart here.

What was measured:
[1] = system: U-937 human histocytic lymphoma; experiment: In vitro inhibition rate to tumor cells (MTT), U-937; format: cell-based; settings: Homo sapiens, U-937, 50 μg/ml, read-out: inhibition rate, Results (%) U-937
[2] = system: SMMC-7721 human hepatic carcinoma; experiment: In vitro inhibition rate to tumor cells (MTT), SMMC-7721; format: cell-based; settings: Homo sapiens, SMMC-7721, 50 μg/ml, read-out: inhibition rate, Results (%) SMMC-7721
[3] = system: MCF-7 human mammary adenocarcinoma; experiment: In vitro inhibition rate to tumor cells (MTT), MCF-7; format: cell-based; settings: Homo sapiens, MCF7, 50 μg/ml, read-out: inhibition rate, Results (%) MCF-7
[4] = system: A-549 human lung adenocarcinoma; experiment: In vitro inhibition rate to tumor cells (MTT), A-549; format: cell-based; settings: Homo sapiens, A549, 50 μg/ml, read-out: inhibition rate, Results (%) A-549
[5] = system: Hela human cervical carcinoma; experiment: In vitro inhibition rate to tumor cells (MTT), Hela; format: cell-based; settings: Homo sapiens, HeLa, 50 μg/ml, read-out: inhibition rate, Results (%) Hela
[6] = system: HepG2 cells; experiment: Cell status of HepG2 cells treated with sample (HBV screening); format: cell-based; settings: 200 μg/ml, HepG2, four days after infection
Procedure: 1.5 Screening for the agents: The HepG2 cells were counted and 1.5×10^4 cells/well were seeded into a 96-well plate. After incubation overnight in an atmosphere of CO2 at 37° C., each of the experimental samples in a given concentration was added to the cells. After incubation at 37 °C for 24 hrs, the HepG2 treated with the samples were infected with vAcGFPHBVc of 100 MOI. A negative control and a positive control were also included. Four days after infection, the growth of the cells were observed, and the HBV e antigen in the supernatant was measured with the HBV e antigen diagnostic kit.

[7] = system: HL-60 human promyelocytic leukemia; experiment: In vitro inhibition rate to tumor cells (MTT), HL-60; format: cell-based; settings: Homo sapiens, HL-60, 50 μg/ml, read-out: inhibition rate, Results (%) HL-60
[8] = system: Bel-7402 human hepatic carcinoma; experiment: In vitro inhibition rate to tumor cells (MTT), Bel-7402; format: cell-based; settings: Homo sapiens, Bel-7402, 50 μg/ml, read-out: inhibition rate, Results (%) Bel-7402
[9] = system: LLC mouse Lewis lung carcinoma; experiment: In vitro inhibition rate to tumor cells (MTT), LLC; format: cell-based; settings: Mus musculus, Lewis lung carcinoma, 50 μg/ml
[10] = system: Hepatitis B virus (HBV); format: cell-based; settings: 200 μg/ml; for (Value of the positive control - Measured Value) Value of the positive control × 100%: decrease of HBeAg relative to positive control; for OD450 of HBeAg: supernatant four days after infection, positive control 1.917, negative 0.057
[11] = system: MDCK (dog kidney) cells; experiment: Toxicity TC50 of the samples in MDCK cells (influenza screening); settings: concentration of 50% toxicity
[12] = molecular target: T1, HIV-1 integrase (HIV-1 IN) (Human immunodeficiency virus type 1 group M subtype B, UniProt P04585); experiment: Screening for the activity against HIV-1 integrase; format: biochemical; settings: initial concentration 100 μg/ml; read-out: IC50
T1 construct: a purified HIV-1 integrase was added into each well; purchased
Procedure: Principle of the test: A synthetic oligonucleotide of 30 nt was used as the donor substrate. A synthetic oligonucleotide of 20 nt was used as the target substrate. A 96-well plate was covered by the donor substrate, and a purified HIV-1 integrase was added into each well. ELISA was performed to measure the product of the target DNA chain transfer. A biotin-labeled alkali phosphatase was used to visual the system. OD value was measured by an Enzyme-linked Detector. Add a sample into the reaction system for screening the inhibitor of the enzyme.
1. HIV-1 IN: commercially available.
2. Treatment of the samples: Before use, the sample was dissolved in water or DMSO at a suitable concentration, then serially diluted (5×), four serial dilutions per sample. The stock solutions of two samples were 100-fold diluted with DMSO, then 5-fold diluted, four serial dilutions per sample. Positive control: S-y, provided by Shanghai Organic Chemistry Institute.
3. The donor substrate and target substrate: synthesized by Shanghai Biological Engineering Company (Shanghai Shenggong).
4. Methods: The diluted sample was added into a 96-well plate covered by the donor substrate, and then added into the reaction buffer containing the genetic engineered target enzyme and biotin-target substrate, incubated in the optimal reaction conditions. A biotin-labeled alkali phosphatase was used to visual the system to determine the absorbance at 450 nm (OD450).

[13] = molecular target: T2, HIV-1 reverse transcriptase (Human immunodeficiency virus type 1 group M subtype B, UniProt P04585); experiment: Screening for the in vitro activity against the HIV-1 reverse transcriptase; format: biochemical; settings: IC50, initial concentration 200 μg/ml
T2 construct: purchased
Procedure: Principle of the test: The template to which the HIV-1 reverse transcriptase interacts was covered onto the enzyme-lined template. In the optimal reaction conditions and system, HIV-1 RT will put the substrate comprising Biotin-dUTP onto the reaction template. The activity of the enzyme was measured as the amount of the integrating Biotin-dUTP in the reaction by using streptavidin-labeled horseradish peroxidase. Adding the sample to the reaction system can identify inhibitor of the enzyme.
1. HIV-1 RT: commercially available.
2. Treatment of the samples: Before use, the sample was dissolved in DMSO at a suitable concentration, then serially diluted (5×) with double distilled water, five serial dilutions per sample.
4. Methods: The diluted sample was added into the reaction buffer containing Biotin-dUTP and the genetic engineered target enzyme, and incubated in the optimal reaction conditions. A streptavidin-labeled horseradish peroxidase was added to visual the system, and OD450 was measured.

[14] = molecular target: T3, HIV-1 proteinase (HIV-1 PR) (Human immunodeficiency virus type 1 group M subtype B, UniProt P04585); experiment: Screening for in vitro activity against HIV-1 proteinase; format: biochemical; settings: for inhibition at 0.08 µg/mL: 0.08 μg/ml; for inhibition at 0.08 µg/mL / inhibition at 0.4 µg/mL / inhibition at 2 µg/mL / inhibition at 10 µg/mL: read-out: Inhibition rate; for inhibition at 0.4 µg/mL: 0.40 μg/ml; for inhibition at 2 µg/mL: 2.0 μg/ml; for inhibition at 10 µg/mL: 10 μg/ml; for IC50: IC50, five 5× serial dilutions from 50 μg/ml; for inhibition at 50 µg/mL: read-out: Inhibition rate, 50 μg/ml
T3 construct: HIV-1 proteinase digests the fluorescent-labeled substrate; purchased
Procedure: Principle of the test: HIV-1 proteinase digests the fluorescent-labeled substrate in an optimal reaction condition and system. The activity of the enzyme can be reflected by the fluorescent intensity in the product of the enzyme reaction. Adding a sample into the reaction system can be used for screening the inhibitor of the enzyme.
1. HIV-1 PR: commercially available, stored at −85° C.
2. Treatment of the samples: Before use, sample was dissolved in DMSO at a suitable concentration, then serially diluted (5×) with double distilled water, five serial dilutions per sample.
3. Positive control: indinavir, purchased from […].
4. Methods: The diluted sample was added into the reaction buffer containing the fluorescent-labeled substrate. Then the genetic engineered target enzyme was added, and incubated in the optimal reaction condition. The fluorescent value was measured with a FLUO star Galaxy luminoscope.

SMILES	inhibition at 50 µg/mL ([1]; Table 1) [%]	inhibition at 50 µg/mL ([1]; Table 2 (repeated screening)) [%]	inhibition at 50 µg/mL ([2]; Table 1) [%]	inhibition at 50 µg/mL ([2]; Table 2 (repeated screening)) [%]	inhibition at 50 µg/mL ([3]; Table 1) [%]	inhibition at 50 µg/mL ([3]; Table 2 (repeated screening)) [%]	inhibition at 50 µg/mL ([4]; Table 1) [%]	inhibition at 50 µg/mL ([4]; Table 2 (repeated screening)) [%]	inhibition at 50 µg/mL ([5]; Table 1) [%]	inhibition at 50 µg/mL ([5]; Table 2 (repeated screening)) [%]	Cell status [6]	inhibition at 50 µg/mL ([7]; Table 1) [%]	inhibition at 50 µg/mL ([7]; Table 2 (repeated screening)) [%]	inhibition at 50 µg/mL ([8]; Table 1) [%]	inhibition at 50 µg/mL ([8]; Table 2 (repeated screening)) [%]	inhibition at 50 µg/mL ([9]; Table 1) [%]	inhibition at 50 µg/mL ([9]; Table 2 (repeated screening)) [%]	(Value of the positive control - Measured Value) Value of the positive control × 100% [10] [%]	OD450 of HBeAg [10]	inhibition at 100 µg/mL [12] [%]	also measured
C=C1CC2(OC)OC3(CC2C(C)C)C(C)CCC13 (centres unmarked) [Compound 25, Curcumol methyl ether]	86.9	82.4	0.24	8.32	9.53	8.12	13.7	14.2	81.9	75.5	Poor	-2.63	1.23	5.68	2.03	4.18	1.02	−31.8206	2.527	–	TC50 [11]: >1000 µg/mL
CC(C)C1CC23OC1(O)CC(C)C2CCC3C (centres unmarked) [Compound 33, hydrogenated curcumol derivative]	44.3	43.2	-7.44	-1.56	45.3	39.3	16.3	14.3	60.9	59.8	Poor	1.32	7.68	14.3	14.9	4.18	3.12	96.45	0.068	< 50	IC50 [13]: > 839 µM; inhibition at 0.08 µg/mL [14]: 13.2%; inhibition at 0.4 µg/mL [14]: 11.4%; inhibition at 2 µg/mL [14]: 10.6%; inhibition at 10 µg/mL [14]: 1.3%; IC50 [14]: > 210 µM; inhibition at 50 µg/mL [14]: 9.14%
CC(C)C1CC23OC1(O)CC1(CO1)C2CCC3C (centres unmarked) [Compound 47, Curcumol epoxy compound]	86.5	85.4	-1.43	-3.25	65.1	60.5	-12	-7.85	83.7	80.8	Poor	10.3	1.96	2.88	2.35	-13.2	-14	80.96	0.365	< 50	IC50 [13]: > 793 µM; inhibition at 0.08 µg/mL [14]: 6.89%; inhibition at 0.4 µg/mL [14]: 12.3%; inhibition at 2 µg/mL [14]: 12.9%; inhibition at 10 µg/mL [14]: 1.78%; IC50 [14]: > 198 µM; inhibition at 50 µg/mL [14]: 0.56%
